Holding throughout (assay type): in vivo
For data set [1], the system named is Avena fatua (AVEFA). The data set is described as follows: Glasshouse herbicide test, pre-emergence application. The conditions noted are these: 250 g/h, evaluated after 13 days. As for the experimental part: (§1) Seeds of a variety of test species are sown in standard soil in pots (Lolium perenne (LOLPE), Setaria faberi (SETFA), Echinochloa crus-galli (ECHCG), Avena fatua (AVEFA)). After cultivation for one day (pre-emergence) or after 8 days cultivation (post-emergence) under controlled conditions in a glasshouse (at 24/16° C., day/night; 14 hours light; 65% humidity), the plants are sprayed with an aqueous spray solution derived from the formulation of the technical active ingredient in acetone/water (50:50) solution containing 0.5% Tween 20 (polyoxyethelyene sorbitan monolaurate, CAS RN 9005-64-5). Compounds are applied at 250 g/h. The test plants are then grown in a glasshouse under controlled conditions in a glasshouse (at 24/16° C., day/night; 14 hours light; 65% humidity) and watered twice daily. After 13 days for pre and post-emergence, the test is evaluated for the percentage damage caused to the plant. The biological activities are shown in the following table on a five point scale (5=80-100%; 4=60-79%; 3=40-59%; 2=20-39%; 1=0-19%).

In data set [2] the test system is Echinochloa crus-galli (ECHCG). Described as above. The conditions noted are these: 250 g/h, evaluated after 13 days. The protocol:
as §1

In data set [3] the test system is Lolium perenne (LOLPE). Described as above. The following applies: 250 g/h, evaluated after 13 days. The protocol:
as §1

Data set [4] has as its system Setaria faberi (SETFA). Described as above. The following applies: 250 g/h, evaluated after 13 days. As for the experimental part:
as §1

In data set [5] the test system is Avena fatua (AVEFA). Put plainly: Glasshouse herbicide test, post-emergence application. The conditions noted are these: 250 g/h, evaluated after 13 days. As for the experimental part: as §1
The test system of data set [6] is Echinochloa crus-galli (ECHCG). The data set is described as above. The following applies: 250 g/h, evaluated after 13 days. As for the experimental part:
as §1

The test system of data set [7] is Lolium perenne (LOLPE). The data set is described as above. The conditions noted are these: 250 g/h, evaluated after 13 days. The protocol:
as §1

The test system of data set [8] is Setaria faberi (SETFA). The description is as above. The conditions noted are these: 250 g/h, evaluated after 13 days. As for the experimental part:
as §1

For another data set, the system named is wheat. The data set is described as follows: Prior art comparison, post-emergence, crop plants. The conditions noted are these: for Wheat (percentage damage): post-emergence.
A further data set relates to barley. Put plainly: Prior art comparison, post-emergence, crop plants.
The subject of data set [9] is Panicum miliaceum (PANMI). Put plainly: Prior art comparison, post-emergence, representative weed. The following applies: for PANMI (percentage damage): post-emergence.

Turning to `CC#Cc1cc(C)c(C2C(=O)CC3(CC2=O)CN(C(C)=O)C3)c(C)c1` [Compound 1.001, 2-acetyl-7-(2,6-dimethyl-4-prop-1-ynyl-phenyl)-2-azaspiro[3.5]nonane-6,8-dione], the “percentage damage caused to the plant, five point scale, AVEFA” value (“percentage damage caused … AVEFA” below) with Avena fatua (AVEFA) [1] and with Avena fatua (AVEFA) [5] was 5 (5=80-100%) each time. Moreover, the “percentage damage caused to the plant, five point scale, ECHCG” value (“percentage damage caused … ECHCG” below) in data set [2] is given as 2 (2=20-39%); in data set [6], 5 (5=80-100%). The “percentage damage caused to the plant, five point scale, LOLPE” value (“percentage damage caused … LOLPE” below) with Lolium perenne (LOLPE) [3] and with Lolium perenne (LOLPE) [7] was 5 (5=80-100%) each time. Further, the “percentage damage caused to the plant, five point scale, SETFA” value (“percentage damage caused … SETFA” below) with Setaria faberi (SETFA) [4] and in the data set on Setaria faberi (SETFA) [8] was 5 (5=80-100%) each time. Also, the “Wheat (percentage damage)” value with wheat (Rate 60), in the data set with wheat (Rate 60 + CQC (safener cloquintocet-mexyl at 50 g/ha)) and in the data set with wheat (Rate 125) was 0 each time. Further, in the data set with wheat (wheat and barley, summary of Table B3), the “crop safety vis-à-vis prior art compound C1” value is on record as “significantly improved crop safety”. Also, the “Barley (percentage damage)” value in the data set with barley (Rate 60) and with barley (Rate 125) was 0 each time. In addition, the “PANMI (percentage damage)” value in [9] (Rate 60) and in data set [9] (Rate 125) was 100 in each case. Moreover, in data set [9] (summary of Table B3), the overall weed control entry is listed as “good overall weed control”.

Regarding `CC#Cc1cc(C)c(C2C(=O)CC3(CC2=O)CN(C(=O)CC#N)C3)c(OC)c1` [Compound 1.023], the “percentage damage caused … AVEFA” value was 2 (2=20-39%) in the data set with Avena fatua (AVEFA) [1] and 5 (5=80-100%) in the data set on Avena fatua (AVEFA) [5]. The “percentage damage caused … ECHCG” value in data set [2] is 1 (1=0-19%); in [6] it was 5 (5=80-100%). The “percentage damage caused … LOLPE” value with Lolium perenne (LOLPE) [3] is reported as 3 (3=40-59%); in the data set on Lolium perenne (LOLPE) [7] it was 5 (5=80-100%). Moreover, the “percentage damage caused … SETFA” value with Setaria faberi (SETFA) [4] is listed as 3 (3=40-59%); with Setaria faberi (SETFA) [8], 5 (5=80-100%).

Regarding `CC#Cc1cc(C)c(C2C(=O)CC3(CC2=O)CN(S(=O)(=O)CC)C3)c(OC)c1` [Compound 1.014], the “percentage damage caused … AVEFA” value with Avena fatua (AVEFA) [1] and in the data set with Avena fatua (AVEFA) [5] was 5 (5=80-100%) throughout. Moreover, the “percentage damage caused … ECHCG” value in data set [2] and in [6] was 5 (5=80-100%) each time. For the same compound, the “percentage damage caused … LOLPE” value in the data set on Lolium perenne (LOLPE) [3] and in the data set on Lolium perenne (LOLPE) [7] was 5 (5=80-100%) in each case. Further, the “percentage damage caused … SETFA” value in the data set with Setaria faberi (SETFA) [4] and in the data set on Setaria faberi (SETFA) [8] was 5 (5=80-100%) in each case.

Regarding `CC#Cc1cc(C)c(C2C(=O)CC3(CC2=O)CN(C(=O)C(C)(C)C)C3)c(OC)c1` [Compound 1.021], the “percentage damage caused … AVEFA” value with Avena fatua (AVEFA) [1] and with Avena fatua (AVEFA) [5] was 5 (5=80-100%) in each case. For the same compound, the “percentage damage caused … ECHCG” value in data set [2] and in [6] was 5 (5=80-100%) throughout. Also, the “percentage damage caused … LOLPE” value in the data set on Lolium perenne (LOLPE) [3] and in the data set with Lolium perenne (LOLPE) [7] was 5 (5=80-100%) in each case. Also, the “percentage damage caused … SETFA” value in the data set with Setaria faberi (SETFA) [4] and in the data set on Setaria faberi (SETFA) [8] was 5 (5=80-100%) each time.

In the case of `CC#Cc1cc(C)c(C2C(=O)CC3(CC2=O)CN(C(=O)NC(C)(C)C)C3)c(C)c1` [Compound 1.006], the “percentage damage caused … AVEFA” value in the data set with Avena fatua (AVEFA) [1] was 2 (2=20-39%); in the data set with Avena fatua (AVEFA) [5] it was 5 (5=80-100%). Besides, the “percentage damage caused … ECHCG” value in data set [2] and in [6] was 5 (5=80-100%) throughout. Further, the “percentage damage caused … LOLPE” value with Lolium perenne (LOLPE) [3] and in the data set on Lolium perenne (LOLPE) [7] was 5 (5=80-100%) throughout. For the same compound, the “percentage damage caused … SETFA” value in the data set with Setaria faberi (SETFA) [4] and with Setaria faberi (SETFA) [8] was 5 (5=80-100%) each time.

As to `CC#Cc1cc(C)c(C2C(=O)CC3(CC2=O)CN(C(=O)c2ccccn2)C3)c(C)c1` [Compound 1.004], the “percentage damage caused … AVEFA” value in the data set on Avena fatua (AVEFA) [1] and in the data set with Avena fatua (AVEFA) [5] was 5 (5=80-100%) throughout. Also, the “percentage damage caused … ECHCG” value in data set [2] and in [6] was 5 (5=80-100%) each time. For the same compound, the “percentage damage caused … LOLPE” value in the data set on Lolium perenne (LOLPE) [3] and in the data set on Lolium perenne (LOLPE) [7] was 5 (5=80-100%) in each case. In addition, the “percentage damage caused … SETFA” value with Setaria faberi (SETFA) [4] and in the data set on Setaria faberi (SETFA) [8] was 5 (5=80-100%) throughout.

With `CC#Cc1cc(C)c(C2C(=O)CC3(CC2=O)CN(C(=O)NC(=O)C(C)(C)C)C3)c(OC)c1` [Compound 1.019], the “percentage damage caused … AVEFA” value is recorded as 4 (4=60-79%) with Avena fatua (AVEFA) [1] and 5 (5=80-100%) in the data set on Avena fatua (AVEFA) [5]. The “percentage damage caused … ECHCG” value in data set [2] is 5 (5=80-100%); in data set [6] it was 4 (4=60-79%). For the same compound, the “percentage damage caused … LOLPE” value was 4 (4=60-79%) with Lolium perenne (LOLPE) [3] and 5 (5=80-100%) in the data set with Lolium perenne (LOLPE) [7]. Besides, the “percentage damage caused … SETFA” value with Setaria faberi (SETFA) [4] is listed as 4 (4=60-79%); with Setaria faberi (SETFA) [8], 5 (5=80-100%).

The values are drawn from patent US12398101B2, “Herbicidal 2-azaspiro[3-5]nonane compounds” (SYNGENTA CROP PROTECTION AG, priority 2018, dated 2025).
